# Key:
# Assay in all cases: viability relative to DMSO control (fraction); higher = less drug effect (more viable cells)
# Details in all cases: 48 h
# [1] = compound: CC(C)(C)c1cc(NC(=O)Nc2ccc(-c3cn4c(n3)sc3cc(OCCN5CCOCC5)ccc34)cc2)no1 [Quizartinib]
# In short: (§1)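 In 384-well plates with compounds pre-plated at five concentrations (one well per concentration), primary mononuclear tumour cells were plated at 4 × 10^4 cells per well. The cells came from blood or bone marrow by Ficoll isolation or from processed lymph node, and were used fresh or cryopreserved. Culture ran for 48 h at 37 °C and 5% CO2 in RPMI-1640 containing penicillin/streptomycin, L-glutamine and human serum. Viability was read as CellTiter-Glo luminescence, normalised to the median of 16 inner DMSO wells.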
# [2] = compound: CC(C)(C)OC(=O)Nc1ccc(-c2cc(C(=O)NCCCCCCC(=O)NO)no2)cc1
# In short: as §1
# [3] = compound: Cc1[nH]c2ccccc2c1CCNCc1ccc(/C=C/C(=O)NO)cc1 [Panobinostat]
# In short: as §1
# [4] = compound: O=C(NCC1(c2nc(-c3ccccc3)cs2)CCOCC1)c1cccc(-c2noc(C(F)(F)F)n2)c1 [TMP269]
# In short: as §1
# [5] = compound: Cc1ccc(NC(=O)c2ccc(CN3CCN(C)CC3)cc2)cc1Nc1nccc(-c2cccnc2)n1 [Imatinib]
# In short: as §1
# [6] = compound: CC(C)C[C@H](NC(=O)[C@H](Cc1ccccc1)NC(=O)c1cnccn1)B(O)O [Bortezomib]
# In short: as §1
# [7] = compound: CC[C@@H]1C(=O)N(C)c2cnc(Nc3ccc(C(=O)N[C@H]4CC[C@H](N5CCN(CC6CC6)CC5)CC4)cc3OC)nc2N1C(C)C [BI6727]
# In short: as §1
# [8] = compound: OC[C@H]1O[C@@H](n2cnc3c2N=CNC[C@H]3O)C[C@@H]1O [Pentostatin]
# In short: as §1
# [9] = compound: CC[C@]1(O)C[C@H]2CN(CCc3c([nH]c4ccccc34)[C@@](C(=O)OC)(c3cc4c(cc3OC)N(C=O)[C@H]3[C@@](O)(C(=O)OC)[C@H](OC(C)=O)[C@]5(CC)C=CCN6CC[C@]43[C@@H]65)C2)C1 [Vincristine]
# In short: as §1
# [10] = compound: CC(=O)[C@]1(O)Cc2c(O)c3c(c(O)c2[C@@H](O[C@H]2C[C@H](N)[C@H](O)[C@H](C)O2)C1)C(=O)c1ccccc1C3=O [Idarubicin]
# In short: as §1
# [11] = compound: COc1nc(N)nc2c1ncn2[C@@H]1O[C@H](CO)[C@@H](O)[C@@H]1O [Nelarabine]
# In short: as §1
# [12] = compound: COc1cc(OC)c(/C=C/S(=O)(=O)Cc2ccc(OC)c(NCC(=O)O)c2)c(OC)c1 [Rigosertib]
# In short: as §1
# [13] = compound: CCCS(=O)(=O)Nc1ccc(F)c(C(=O)c2c[nH]c3ncc(-c4ccc(Cl)cc4)cc23)c1F [Vemurafenib]
# In short: as §1
# [14] = compound: CC(C)C[C@H](NC(=O)[C@H](CCc1ccccc1)NC(=O)CN1CCOCC1)C(=O)N[C@@H](Cc1ccccc1)C(=O)N[C@@H](CC(C)C)C(=O)[C@@]1(C)CO1 [Carfilzomib]
# In short: as §1
test system,measurement,setting,value
primary B-PLL patient cells (S016),viability,[1]; 0.016 µM,1.03
same,viability,[1]; 0.08 µM,1.25
same,viability,[1]; 0.4 µM,1.04
same,viability,[1]; 2 µM,1.15
same,viability,[1]; 10 µM,1
same,viability,[2]; 0.024 µM,1.07
same,viability,[2]; 0.12 µM,0.793
same,viability,[2]; 0.6 µM,0.4
same,viability,[2]; 3 µM,0.177
same,viability,[2]; 15 µM,0.0354
same,viability,[3]; 0.00064 µM,0.824
same,viability,[3]; 0.0032 µM,0.424
same,viability,[3]; 0.016 µM,0.0534
same,viability,[3]; 0.08 µM,0.0414
same,viability,[3]; 0.4 µM,0.0709
same,viability,[4]; 0.024 µM,1
same,viability,[4]; 0.12 µM,1.11
same,viability,[4]; 0.6 µM,1.05
same,viability,[4]; 3 µM,1.07
same,viability,[4]; 15 µM,1.06
same,viability,[5]; 0.016 µM,1.07
same,viability,[5]; 0.08 µM,0.938
same,viability,[5]; 0.4 µM,1.1
same,viability,[5]; 2 µM,0.793
same,viability,[5]; 10 µM,0.66
same,viability,[6]; 0.008 µM,0.99
same,viability,[6]; 0.04 µM,1.07
same,viability,[6]; 0.2 µM,1.01
same,viability,[6]; 1 µM,1.19
same,viability,[6]; 5 µM,1.02
same,viability,[7]; 0.024 µM,0.953
same,viability,[7]; 0.12 µM,0.973
same,viability,[7]; 0.6 µM,0.935
same,viability,[7]; 3 µM,0.8
same,viability,[7]; 15 µM,0.364
same,viability,[8]; 0.03 µM,0.743
same,viability,[8]; 0.15 µM,0.765
same,viability,[8]; 0.75 µM,1.07
same,viability,[8]; 3.75 µM,0.894
same,viability,[8]; 18.76 µM,0.736
same,viability,[9]; 0.016 µM,0.225
same,viability,[9]; 0.08 µM,0.209
same,viability,[9]; 0.4 µM,0.161
same,viability,[9]; 2 µM,0.125
same,viability,[9]; 10 µM,0.0588
same,viability,[10]; 0.024 µM,0.188
same,viability,[10]; 0.12 µM,0.0649
same,viability,[10]; 0.6 µM,0.0214
same,viability,[10]; 3 µM,0.0129
same,viability,[10]; 15 µM,0.00911
same,viability,[11]; 0.024 µM,0.896
same,viability,[11]; 0.12 µM,1.03
same,viability,[11]; 0.6 µM,0.898
same,viability,[11]; 3 µM,1.04
same,viability,[11]; 15 µM,0.674
same,viability,[12]; 0.008 µM,0.976
same,viability,[12]; 0.04 µM,1.04
same,viability,[12]; 0.2 µM,0.948
same,viability,[12]; 1 µM,0.961
same,viability,[12]; 5 µM,0.455
same,viability,[13]; 0.024 µM,0.934
same,viability,[13]; 0.12 µM,0.948
same,viability,[13]; 0.6 µM,1.02
same,viability,[13]; 3 µM,1.01
same,viability,[13]; 15 µM,0.981
same,viability,[14]; 0.00016 µM,0.933
same,viability,[14]; 0.0008 µM,0.381
same,viability,[14]; 0.004 µM,0.0322
same,viability,[14]; 0.02 µM,0.0189
same,viability,[14]; 0.1 µM,0.0238
primary BL patient cells (S005),viability,[1]; 0.016 µM,1.01
same,viability,[1]; 0.08 µM,1.1
same,viability,[1]; 0.4 µM,1.07
same,viability,[1]; 2 µM,1.11
same,viability,[1]; 10 µM,0.966
same,viability,[2]; 0.024 µM,1.06
same,viability,[2]; 0.12 µM,0.802
same,viability,[2]; 0.6 µM,0.738
same,viability,[2]; 3 µM,0.591
same,viability,[2]; 15 µM,0.382
same,viability,[3]; 0.00064 µM,0.9
same,viability,[3]; 0.0032 µM,0.723
same,viability,[3]; 0.016 µM,0.562
same,viability,[3]; 0.08 µM,0.55
same,viability,[3]; 0.4 µM,0.454
same,viability,[4]; 0.024 µM,1.11
same,viability,[4]; 0.12 µM,1.08
same,viability,[4]; 0.6 µM,1.12
same,viability,[4]; 3 µM,1.08
same,viability,[4]; 15 µM,1
same,viability,[5]; 0.016 µM,1.02
same,viability,[5]; 0.08 µM,0.924
same,viability,[5]; 0.4 µM,0.982
same,viability,[5]; 2 µM,0.905
same,viability,[5]; 10 µM,0.867
same,viability,[6]; 0.008 µM,1.57
same,viability,[6]; 0.04 µM,0.959
same,viability,[6]; 0.2 µM,1.54
same,viability,[6]; 1 µM,0.964
same,viability,[6]; 5 µM,1.44
same,viability,[7]; 0.024 µM,0.931
same,viability,[7]; 0.12 µM,0.881
same,viability,[7]; 0.6 µM,0.9
same,viability,[7]; 3 µM,0.725
same,viability,[7]; 15 µM,0.483
same,viability,[8]; 0.03 µM,0.881
same,viability,[8]; 0.15 µM,0.79
same,viability,[8]; 0.75 µM,1
same,viability,[8]; 3.75 µM,0.914
same,viability,[8]; 18.76 µM,0.909
same,viability,[9]; 0.016 µM,1.08
same,viability,[9]; 0.08 µM,0.912
same,viability,[9]; 0.4 µM,1.11
same,viability,[9]; 2 µM,0.811
same,viability,[9]; 10 µM,1.08
same,viability,[10]; 0.024 µM,1.08
same,viability,[10]; 0.12 µM,1.45
same,viability,[10]; 0.6 µM,1.16
same,viability,[10]; 3 µM,0.541
same,viability,[10]; 15 µM,0.665
same,viability,[11]; 0.024 µM,0.894
same,viability,[11]; 0.12 µM,0.99
same,viability,[11]; 0.6 µM,0.893
same,viability,[11]; 3 µM,0.996
same,viability,[11]; 15 µM,0.873
same,viability,[12]; 0.008 µM,0.955
same,viability,[12]; 0.04 µM,0.94
same,viability,[12]; 0.2 µM,0.95
same,viability,[12]; 1 µM,0.89
same,viability,[12]; 5 µM,0.906
same,viability,[13]; 0.024 µM,0.966
same,viability,[13]; 0.12 µM,0.993
same,viability,[13]; 0.6 µM,0.989
same,viability,[13]; 3 µM,1.07
same,viability,[13]; 15 µM,1.1
same,viability,[14]; 0.00016 µM,1.54
same,viability,[14]; 0.0008 µM,0.957
same,viability,[14]; 0.004 µM,1
same,viability,[14]; 0.02 µM,0.357
same,viability,[14]; 0.1 µM,0.284
